This is an account of results in patent publication US20100267697A1, “ION CHANNEL MODULATORS” (Wyeth, priority 2006, published 2010).

T1 sequence (Q00975 whole entry): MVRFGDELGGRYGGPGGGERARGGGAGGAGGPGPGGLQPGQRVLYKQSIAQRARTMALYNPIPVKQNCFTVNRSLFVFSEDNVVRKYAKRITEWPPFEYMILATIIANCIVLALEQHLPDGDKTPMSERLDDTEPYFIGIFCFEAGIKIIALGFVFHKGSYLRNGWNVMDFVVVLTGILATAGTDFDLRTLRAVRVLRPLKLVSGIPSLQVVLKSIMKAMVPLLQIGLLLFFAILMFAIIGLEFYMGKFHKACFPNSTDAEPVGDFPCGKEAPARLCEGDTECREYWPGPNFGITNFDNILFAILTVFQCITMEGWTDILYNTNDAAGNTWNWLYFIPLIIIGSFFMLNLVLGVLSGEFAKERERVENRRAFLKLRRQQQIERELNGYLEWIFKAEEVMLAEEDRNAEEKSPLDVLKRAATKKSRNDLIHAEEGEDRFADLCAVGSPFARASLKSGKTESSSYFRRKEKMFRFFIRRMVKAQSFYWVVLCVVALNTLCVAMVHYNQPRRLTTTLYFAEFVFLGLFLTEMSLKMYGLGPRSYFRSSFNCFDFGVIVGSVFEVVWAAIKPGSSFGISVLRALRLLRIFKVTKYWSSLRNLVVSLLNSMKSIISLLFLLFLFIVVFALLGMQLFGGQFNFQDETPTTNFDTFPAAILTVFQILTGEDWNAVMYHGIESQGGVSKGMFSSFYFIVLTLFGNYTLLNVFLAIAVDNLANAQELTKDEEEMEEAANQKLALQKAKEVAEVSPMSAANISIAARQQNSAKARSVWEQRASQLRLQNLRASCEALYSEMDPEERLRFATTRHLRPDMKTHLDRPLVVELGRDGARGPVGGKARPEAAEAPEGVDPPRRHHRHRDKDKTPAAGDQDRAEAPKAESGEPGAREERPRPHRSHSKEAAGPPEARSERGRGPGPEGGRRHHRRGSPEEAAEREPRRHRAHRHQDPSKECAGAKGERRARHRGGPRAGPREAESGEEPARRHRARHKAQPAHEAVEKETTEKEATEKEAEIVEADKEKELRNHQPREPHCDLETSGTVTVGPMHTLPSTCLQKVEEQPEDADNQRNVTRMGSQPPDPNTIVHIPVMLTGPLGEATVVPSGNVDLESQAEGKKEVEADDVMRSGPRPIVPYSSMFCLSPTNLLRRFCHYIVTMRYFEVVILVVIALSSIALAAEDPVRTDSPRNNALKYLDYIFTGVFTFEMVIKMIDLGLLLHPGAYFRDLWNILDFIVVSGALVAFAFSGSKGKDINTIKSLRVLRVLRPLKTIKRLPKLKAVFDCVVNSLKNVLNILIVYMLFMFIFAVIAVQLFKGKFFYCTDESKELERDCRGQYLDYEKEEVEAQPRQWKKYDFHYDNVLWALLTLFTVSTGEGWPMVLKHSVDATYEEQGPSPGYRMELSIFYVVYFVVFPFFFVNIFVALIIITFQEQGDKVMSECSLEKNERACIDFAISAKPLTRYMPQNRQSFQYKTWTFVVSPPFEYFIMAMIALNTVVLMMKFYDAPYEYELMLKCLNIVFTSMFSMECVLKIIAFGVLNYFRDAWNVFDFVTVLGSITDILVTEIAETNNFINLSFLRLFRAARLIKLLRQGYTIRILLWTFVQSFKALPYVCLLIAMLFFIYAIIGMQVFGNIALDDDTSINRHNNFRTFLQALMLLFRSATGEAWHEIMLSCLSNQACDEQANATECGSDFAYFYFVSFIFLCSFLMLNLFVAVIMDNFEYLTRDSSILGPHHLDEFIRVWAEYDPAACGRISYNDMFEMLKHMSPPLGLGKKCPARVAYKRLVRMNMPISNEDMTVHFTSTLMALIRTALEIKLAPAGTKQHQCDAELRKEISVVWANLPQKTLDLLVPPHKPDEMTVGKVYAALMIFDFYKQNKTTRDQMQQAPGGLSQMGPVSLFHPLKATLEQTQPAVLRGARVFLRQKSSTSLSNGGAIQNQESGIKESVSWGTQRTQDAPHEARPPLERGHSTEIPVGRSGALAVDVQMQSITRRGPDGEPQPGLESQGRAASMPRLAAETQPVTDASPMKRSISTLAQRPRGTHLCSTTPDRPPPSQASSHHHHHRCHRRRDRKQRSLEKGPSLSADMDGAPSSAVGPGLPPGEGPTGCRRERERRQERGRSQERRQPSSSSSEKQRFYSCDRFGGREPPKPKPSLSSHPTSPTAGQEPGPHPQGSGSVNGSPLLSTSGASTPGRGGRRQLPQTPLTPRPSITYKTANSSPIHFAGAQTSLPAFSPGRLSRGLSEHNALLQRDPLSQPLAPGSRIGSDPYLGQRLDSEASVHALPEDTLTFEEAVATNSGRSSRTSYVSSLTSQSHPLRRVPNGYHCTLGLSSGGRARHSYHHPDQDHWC
T1 sequence (P54284 whole entry partner): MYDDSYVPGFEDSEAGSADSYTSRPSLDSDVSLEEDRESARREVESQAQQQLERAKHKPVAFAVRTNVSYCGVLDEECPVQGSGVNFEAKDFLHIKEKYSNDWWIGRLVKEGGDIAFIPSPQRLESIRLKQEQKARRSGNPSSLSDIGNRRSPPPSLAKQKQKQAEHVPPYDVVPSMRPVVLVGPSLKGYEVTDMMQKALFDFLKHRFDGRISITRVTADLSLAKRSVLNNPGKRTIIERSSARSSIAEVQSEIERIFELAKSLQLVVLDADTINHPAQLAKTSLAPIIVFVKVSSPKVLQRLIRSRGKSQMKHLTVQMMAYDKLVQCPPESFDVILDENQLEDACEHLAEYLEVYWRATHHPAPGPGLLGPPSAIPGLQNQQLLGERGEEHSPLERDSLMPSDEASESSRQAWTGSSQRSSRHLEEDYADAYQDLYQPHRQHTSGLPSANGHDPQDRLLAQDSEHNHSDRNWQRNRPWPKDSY
T1 sequence (P54289 25-946 partner limits assumed): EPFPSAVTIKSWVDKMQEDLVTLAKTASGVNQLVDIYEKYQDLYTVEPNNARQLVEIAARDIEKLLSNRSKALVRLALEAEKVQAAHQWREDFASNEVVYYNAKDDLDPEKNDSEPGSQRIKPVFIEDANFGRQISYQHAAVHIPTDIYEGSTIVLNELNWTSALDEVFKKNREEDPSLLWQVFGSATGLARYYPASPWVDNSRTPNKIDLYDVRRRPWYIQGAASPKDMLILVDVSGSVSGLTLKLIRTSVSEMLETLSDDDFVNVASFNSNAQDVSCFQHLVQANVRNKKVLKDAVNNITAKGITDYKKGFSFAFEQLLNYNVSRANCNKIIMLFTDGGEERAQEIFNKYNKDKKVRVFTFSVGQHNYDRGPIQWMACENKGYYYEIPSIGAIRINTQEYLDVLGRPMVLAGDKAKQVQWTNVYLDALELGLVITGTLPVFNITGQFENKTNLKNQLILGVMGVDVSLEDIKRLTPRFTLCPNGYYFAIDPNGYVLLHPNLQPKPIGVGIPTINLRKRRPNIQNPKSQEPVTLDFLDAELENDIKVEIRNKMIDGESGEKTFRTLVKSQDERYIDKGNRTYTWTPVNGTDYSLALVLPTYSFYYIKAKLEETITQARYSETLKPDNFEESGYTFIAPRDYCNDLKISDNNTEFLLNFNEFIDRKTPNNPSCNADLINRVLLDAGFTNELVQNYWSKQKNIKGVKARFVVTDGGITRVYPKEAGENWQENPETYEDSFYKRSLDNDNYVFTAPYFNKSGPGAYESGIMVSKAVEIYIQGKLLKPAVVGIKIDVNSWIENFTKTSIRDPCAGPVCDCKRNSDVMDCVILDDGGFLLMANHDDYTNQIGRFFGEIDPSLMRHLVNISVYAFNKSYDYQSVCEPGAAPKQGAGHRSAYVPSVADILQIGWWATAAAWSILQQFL
T1 sequence (P54289 947-1103 partner limits assumed): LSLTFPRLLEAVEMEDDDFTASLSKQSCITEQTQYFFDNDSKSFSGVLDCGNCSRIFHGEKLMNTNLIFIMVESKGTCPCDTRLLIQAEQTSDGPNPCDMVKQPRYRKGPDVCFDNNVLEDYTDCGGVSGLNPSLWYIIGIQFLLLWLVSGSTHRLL

This test concerns the target T1, human Cav2.2 (composed of the subunits α1, β3 and α2δ) (Homo sapiens, UniProt Q00975).
T1 construct: expressed in transfected cells
Put plainly: FLIPR assay (TSA201 cells stably transfected with human Cav2.2 and human Kir2.3, FLUO-4 Ca2+ signal, KCl depolarization). It counts as cell-based. Conditions: 70 mM KCl depolarization, average value. In short, it runs like this: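 TSA201 cells co-expressing Cav2.2 (α1, β3, α2δ) and Kir2.3 were loaded with FLUO-4 for 1 h at room temperature. Compound in HBSS with 1% DMSO was preincubated 15 min, then cells were depolarized with 70 mM final KCl (with CaCl2 and HEPES) and the Ca2+ fluorescence was read on FLIPR.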
Broadly, the IC50 is the concentration needed to halve the response being measured. The compound `CCCNc1nc(CN(C(=O)C(C)(C)C)c2ccc(F)cc2)cs1` [Compound 163, N-(4-fluorophenyl)-2,2-dimethyl-N-{[2-(propylamino)-1,3-thiazol-4-yl]methyl}propanamide] yielded an IC50 of 7.7 µM.

`CN1CCN(c2ccc(CN(C(=O)[C@H]3CCN(C(=O)OC(C)(C)C)C3)c3ccc(F)cc3)cn2)CC1` [Compound 256, tert-butyl (3S)-3-[(4-fluorophenyl){[6-(4-methylpiperazin-1-yl)pyridin-3-yl]methyl}carbamoyl]pyrrolidine-1-carboxylate]: the IC50 came out at 12.6 µM. Against the preceding compound, the IC50 is about 1.6-fold higher.

`CC(=O)N(Cc1csc(N2CCOCC2)n1)C1CCCCC1` [Compound 199, N-cyclohexyl-N-[(2-morpholin-4-yl-1,3-thiazol-4-yl)methyl]acetamide] came in with an IC50 of 27.2 µM. The value for `CC(C)(C)C(=O)N(Cc1csc(N2CCC(CO)CC2)n1)c1ccc(F)cc1` [Compound 185, N-(4-fluorophenyl)-N-({2-[4-(hydroxymethyl)piperidin-1-yl]-1,3-thiazol-4-yl}methyl)-2,2-dimethylpropanamide] was 2.5 µM; that for `CN(C)CCCCNc1nc(CN(C(=O)C(C)(C)C)c2ccc(F)cc2)cs1` [Compound 155, N-[(2-{[4-(dimethylamino)butyl]amino}-1,3-thiazol-4-yl)methyl]-N-(4-fluorophenyl)-2,2-dimethylpropanamide] was 8.5 µM. Regarding `CC(C)(C)OC(=O)N1CC[C@@H](C(=O)N(Cc2ccc(Cl)nc2)c2ccc(F)cc2)C1` [Compound 255, tert-butyl (3R)-3-{[(6-chloropyridin-3-yl)methyl](4-fluorophenyl)carbamoyl}pyrrolidine-1-carboxylate], half-maximal inhibition (IC50) required 2.8 µM. For `CCN(CC)c1nc(CN(C(C)=O)c2ccc(F)cc2)cs1` [Compound 219, N-{[2-(diethylamino)-1,3-thiaozl-4-yl]methyl}-N-(4-fluorophenyl)acetamide], the IC50 was 8.7 µM. This IC50 is about 3.1-fold higher than that of the compound before. As for `CC(=O)N(Cc1ccc(N2CCC(O)CC2)nc1)c1ccc(F)cc1` [Compound 231, N-(4-fluorophenyl)-N-{[6-(4-hydroxypiperidin-1-yl)pyridin-3-yl]methyl}acetamide], 49.7 µM corresponded to half-maximal inhibition (IC50). In the case of `CCN(c1nc(CN(C(C)=O)C2CCC(C(C)(C)C)CC2)cs1)C1CC1` (centres unmarked) [Compound 238, N-(4-tert-butylcyclohexyl)-N-({2-[cyclopropyl(ethyl)amino]-1,3-thiazol-4-yl}methyl)acetamide], the midpoint of inhibition, the IC50, lay at 3.3 µM.

Compound `CCN(c1nc(CN(C(=O)C(C)(C)C)c2ccccc2C)cs1)C1CC1` [Compound 171, N-({2-[cyclopropyl(ethyl)amino]-1,3-thiazol-4-yl}methyl)-2,2-dimethyl-N-(2-methylphenyl)propanamide] gave an IC50 of 6.5 µM. This IC50 is about 2-fold higher than that of the compound before. The value for `CC(C)(C)C(=O)N(Cc1csc(N2CCN(CCc3ccccc3)CC2)n1)c1ccc(F)cc1` [Compound 165, N-(4-fluroophenyl)-2,2-dimethyl-N-({2-[4-(2-phenylethyl)piperazin-1-yl]--1,3-thiazol-4-yl}methyl)propanamide] was 3.6 µM; that for `CC(C)(C)C(=O)N(Cc1csc(N2CCN(c3ccccn3)CC2)n1)c1ccc(F)cc1` [Compound 149, N-(4-fluorophenyl)-2,2-dimethyl-N-{[2-(4-pyridin-2-ylpiperazin-1-yl)--1,3-thiazol-4-yl]methyl}propanamide] was 8.1 µM; that for `CC1CN(c2nc(CN(C(=O)C(C)(C)C)c3ccc(F)cc3)cs2)CC(C)N1` (centres unmarked) [Compound 145, N-{[2-(3,5-dimethylpiperazin-1-yl)-1,3-thiazol-4-yl]methyl}-N-(4-fluorophenyl)-2,2-dimethylpropanamide] was 18.5 µM.

The compound `CCN(c1nc(CN(C(C)=O)C2CCCCC2)cs1)C1CC1` [Compound 197, N-cyclohexyl-N-({2-[cyclopropyl(ethyl)amino]-1,3-thiaozl-4-yl}methyl)acetamide] yielded an IC50 of 5.7 µM.
